Reference: patent publication US20060293288A1, “Use of resolvins to treat gastrointestinal diseases” (priority 2005, published 2006)
“Also recorded” adds a separate entry of the source.

Columns and labels:
[1] = system: leukocyte infiltration in zymosan-induced peritonitis; assay: zymosan-induced peritonitis, leukocyte (PMN) infiltration; assay type: in vivo, mice; settings: for relative potency in the peritonitis model: compared with RvE1 or indomethacin; for effect on PMN infiltration/migration into the peritoneum (in words): peritonitis model, mice
Description: FIG. 1. (A) Inflammatory exudates from mice treated with EPA and aspirin generate RvE1 in vivo. (B) Inhibition of leukocyte infiltration in zymosan-induced peritonitis treated with EPA and aspirin. Mice were pre-treated for 30 min by aspirin (0.5 mg) intraperitoneally followed by EPA (0.3 mg) and zymosan. Peritoneal lavages were collected at 2 h and cells were enumerated. (n=4, *p<0.05 compared with vehicle control, **p<0.05 compared with aspirin alone). (C) Inhibition of leukocyte infiltration in zymosan-induced peritonitis. RvE1 (100 ng) was injected intravenously into tail veins followed by zymosan A into the peritoneum. Mice were sacrificed, and peritoneal lavages were collected (2 h) and cells enumerated (n=3, *p<0.01 compared with vehicle control).
Inflammatory exudates were initiated with intraperitoneal injection of 1 ml zymosan A (1 mg/ml) with 6-8-wk-old male FvB mice. Mice were pre-treated by aspirin (0.5 mg) i.p. followed by EPA (0.3 mg) and zymosan. Peritoneal lavages were collected at 2 h and cells were enumerated. Cell-free exudates were extracted by C18 solid phase extraction with deuterium-LTB4 (Cascade, UK) as an internal standard for LC-UV-MS/MS analysis using a Finnigan LCQ liquid chromatography ion trap tandem mass spectrometer equipped with a LUNA C18-2 (100×2 mm×5 μm) column and UV diode array detector using mobile phase (methanol:water:acetate at 65:35:0.01) from 0 to 8 min, ramped to methanol 8 to 30 min, with a 0.2 ml/min flow rate.

[2] = system: gastric damage; settings: induced by dextran sodium sulfate or aspirin; cited from earlier work
[3] = system: TNBS-induced colitis; assay: grading of histologic change of the colon in TNBS colitis; assay type: in vivo, BALB/c mice; settings: day 4, 1.0 μg/mouse i.p.
Description: FIG. 3. Colon histopathology from RvE1 or ATLa-treated mice. Colon section of vehicle-treated mouse (A), 4 days after the induction of colitis by TNBS (B), mice received RvE1 (C) and ATLa (D). (E) Histological scores of the colon of mice receiving vehicle, TNBS only, TNBS plus RvE1, or TNBS plus ATLa. *p<0.05 and **p<0.01, respectively.
To generate a more chronic T cell-mediated inflammation, BALB/c mice were sensitized with 150 μl of the haptenating agent 2,4,6-trinitrobenzene sulfonic acid (TNBS; Sigma-Aldrich, St. Louis, Mo.) of 2.5% in 50% ethanol by skin painting on day −7. On day 0, 150 μl of 1% TNBS in 50% ethanol was administered intrarectally via a 3.5 F catheter under anesthesia with tribromoethanol. To ensure distribution of the TNBS within the entire colon and cecum, mice were held in a vertical position for 1 min after the instillation. On day 4, mice were killed and immunopathologic characterization was performed as previously described (23).
The degree of inflammation on microscopic cross sections of the colon was graded semi quantitatively. Severity of colitis was assessed based on five histologic criteria, each graded on a […] (0=absent, 1=mild, 2=moderate, 3=severe): mononuclear inflammation, neutrophilic infiltration/crypt abscesses, crypt hyperplasia, mucosal injury/ulceration, and mucosal hypervascularity. The five scores were summed to give a total score. […]

[4] = system: dextran sodium sulfate (DSS)-induced colitis; settings: cited from earlier work
[5] = system: Myeloperoxidase (MPO) activity of colons; assay: myeloperoxidase (MPO) assay of colon tissue in TNBS colitis; assay type: in vivo, mice; settings: versus control vehicle
Source text: (§1) FIG. 4. RvE1 reduces leukocyte infiltration and pro-inflammatory mediators in colitis. (A) Myeloperoxidase (MPO) activity of colons of mice treated with TNBS alone or mice given RvE1. *p<0.0001 versus mice treated with TNBS alone. (B) Anti-TNBS IgG level in serum on day 4 from mice treated with TNBS alone or receiving RvE1 as noted. *p<0.01. (C) Quantitative real time PCR analysis of mRNA expression of inflammatory mediators in colons obtained on day 4 from control mice (white column), mice treated with TNBS alone (black column) or receiving TNBS plus RvE1 (gray column). *p<0.01.
Each tissue sample was assessed for PMN content and infiltration. Tissues were homogenized in potassium phosphate buffer (pH 6.0) containing 0.5% hexadecyltrimethylammonium bromide, followed by three cycles of sonication and freeze-thawing. The particulate matter was removed by centrifugation (16,000 g for 20 min), and 75 μl of supernatant was added to 925 μl of potassium phosphate buffer (pH 6.0) containing 0.2 mg/ml o-dianisidine dihydrochloride (Sigma, St. Louis, Mo.) and 0.0006% hydrogen peroxide. Changes in OD were monitored at 460 nm at 25° C., at 30- and 90-s intervals. Calibration curve for conversion of MPO activities to PMN number was performed as in ref. 24.

[6] = system: mRNA expression of inflammatory mediators in colons; assay: quantitative real-time PCR of inflammatory mediators in colon; assay type: in vivo, mice; settings: day 4, TNBS colitis
Source text: as §1
Total RNA from colon was prepared using Trizol™ reagent (Life Technologies, Rockville, Md.). Real-time PCR was performed using the LightCycler FastStart DNA Master SYBR Green I (Roche Diagnostics GmbH, Mannheim, Germany) according to manufacturer's protocol. Primers for IFN-γ, IL-12p40, TNF-α, IL-4, TGF-β, IL-10, iNOS and glyceraldehyde-3-phosphate dehydrogenase (GAPDH) were designed as described (26). Primers for COX-2 were designed as follows: 5′-[…]-3′ and 5′-[…]-3′. Quantities of specific mRNA in the sample were measured according to the corresponding gene-specific standard curve. The relative expression of each gene was normalized against the housekeeping gene GAPDH.

[7] = system: anti-TNBS IgG; assay: detection of TNP-specific antibodies in serum with ELISA; assay type: in vivo, mice; settings: day 4
Source text: as §1
Sera were collected on day 4, and anti-trinitrophenyl residue (TNP) antibodies were determined by ELISA as previously described with a minor modification (25). Briefly, 100 mg of OVA was dissolved in 4 ml of 0.05M carbonate-bicarbonate buffer at pH 9.6 followed by adding 1 ml of TNBS 5% solution and incubating for 2 h at room temperature. TNP-OVA was dialyzed in PBS and then stored at −80° C. until use. For the detection of TNP-specific antibodies, TNP-OVA was dissolved at the concentration of 0.1 mg/ml in 0.05M carbonate-bicarbonate buffer at pH 9.6 and 100 μl was placed in each well of 96-well microtiter plates for coating. After blocking with 1% bovine serum albumin in PBS, plates were incubated with appropriately diluted serum. […]

[8] = system: TNBS-induced colitis; assay: TNBS-induced colitis (mortality, body weight, colon macroscopy); assay type: in vivo, BALB/c mice
Description: (C) Macroscopic appearance of the colon of mice receiving vehicle, TNBS only, or mice receiving RvE1 (0.05 mg/kg).
RvE1 was administered intraperitoneally (1.0 μg/mouse; 50 μg/kg) on the indicated days before the induction of colitis (prevention mode). Aspirin-triggered lipoxin A4 analog (ATLa; 15-epi-16-(p-fluoro)phenoxy-LXA4) was given at the same dose as a direct comparison with RvE1.

CCC(O)/C=C/C=C\C/C=C\C/C=C\C=C\[C@@H](O)CCCC(=O)O (mixture of isomers) [5S,18(+/−)-diHEPA]
relative potency in the peritonitis model [1]: equipotent to Resolvin E1 | effect on PMN infiltration/migration into the peritoneum (in words) [1]: downregulation of PMN infiltration

CC/C=C\C[C@H](O)/C=C/C=C\C=C\[C@@H](O)C/C=C\CC#CCCC(=O)O [4,5-dehydro 10,17S-dihydroxy DHA]
inhibition of the PMN infiltration ([1]; 100 ng dose, murine zymosan A-induced peritonitis): 40%

CC/C=C\C[C@H](O)/C=C/C=C/C=C/C(O)C/C=C\C/C=C\CCC(=O)O (stereo partly drawn) [10,17 di-HDHA, 10,17S-dihydroxy-docosa-4Z,7Z,11E,13,15E,19Z-hexaenoic acid]
effect on PMN infiltration/migration into the peritoneum (in words) [1]: inhibited both PMN migration into the peritoneum

CCCCC[C@@H](O)/C=C/C=C\C=C\C=C\[C@@H](O)[C@@H](O)CCCC(=O)O [15-epi-lipoxin A4]
protection against gastric damage [2]: protective

CC[C@@H](O)/C=C/C=C\C/C=C\C/C=C\C/C=C\CCCC(=O)O [18R-HEPE, reference compound]
relative potency in the peritonitis model [1]: much less potent

O=C(O)CCC[C@H](O)[C@H](O)/C=C/C=C/C=C\C=C\[C@H](O)COc1ccc(F)cc1 [ATLa, 15-epi-16-(p-fluoro)phenoxy-LXA4, reference compound]
histologic features of colitis [3]: dramatic protection | protection against DSS-induced colitis [4]: protective

CC[C@@H](O)/C=C/C=C\C[C@@H](O)/C=C/C=C/C=C\[C@@H](O)CCCC(=O)O [RvE1, 5S,12R,18R-trihydroxy-6Z,8E,10E,14Z,16E-eicosapentaenoic acid]
myeloperoxidase (MPO) activity in colon [5]: significantly lower levels | COX-2 mRNA level in colon [6]: significant reduction | IFN-γ mRNA level in colon [6]: direct effects were not observed | IL-4 mRNA level in colon [6]: direct effects were not observed | IL-10 mRNA level in colon [6]: direct effects were not observed | IL-12p40 mRNA level in colon [6]: significant reduction | TGF-β mRNA level in colon [6]: did not show significant differences | TNF-α mRNA level in colon ([6]; 0.05 mg/kg): significant reduction; also recorded: dramatic decrease | iNOS mRNA level in colon ([6]; 0.05 mg/kg): significant reduction; also recorded: dramatic decrease | histologic features of colitis [3]: less severe histologic features of colitis | serum anti-TNBS IgG level [7]: decreased | reduction of leukocyte infiltration ([1]; 100 ng/mouse intravenously, zymosan peritonitis, lavage at 2 h): 50% | relative potency in the peritonitis model [1]: more potent than indomethacin | protection against the development of TNBS colitis ([8]; 0.05 mg/kg): complete protection | overall mortality ([8]; RvE1 1.0 μg/mouse (0.05 mg/kg) i.p., TNBS alone 62.5%): 25% | body weight loss ([8]; RvE1 1 μg/mouse or 0.05 mg/kg, versus TNBS with vehicle): less weight loss | shortening and thickening of the colon ([8]; RvE1 0.05 mg/kg): did not exhibit significant shortening and thickening of the colon | survival rate ([8]; versus non-treated mice): significantly higher

COc1ccc2c(c1)c(CC(=O)O)c(C)n2C(=O)c1ccc(Cl)cc1 [indomethacin, reference compound]
reduction of leukocyte numbers in the exudate ([1]; zymosan peritonitis, dose not given): approximately 20%
